Residues, ends and D or L forms follow the SMILES beside them.
Key:
[1] = system: right cerebral artery ischemia/reperfusion model in rats; experiment: Neurologic deficit score in the rat 1.5-hour ischemia/reperfusion model; type: in vivo, Sprague-Dawley (SD) rats; settings: 3.6 mg/kg intraperitoneal once a day
Protocol: (§1) Sprague-Dawley (SD) rats, male, weighing 280-320 g, clean, feeding, conditions: room temperature of 20-25° C., humidity of 30-60%, well ventilated, ad libitum diet; the animals were acclimatized in the feeding environment for three days prior to the experiment.
(§2) The rats were anesthetized with 4% chloral hydrate (350 mg/kg, ip.) and then were fixed in a supine position. A midline ventral neck incision was made, the right common carotid artery was separated and snared with two sutures for further use. Then, the internal carotid artery and external carotid artery were separated, and the external carotid artery was ligatured. The separated common carotid artery was ligatured at its proximal end with a thread, and the blood flow of the same was blocked at its distal end with a bulldog clamp. A small opening was cut therebetween and a nylon suture (4-0) which is heated at one end into a bead-like shape (having a diameter of <0.3 mm) was inserted into the small opening. […]
Neurologic deficit scores were assessed for the above experimental animals according to the following procedure before the beginning of experiment and 24 hours, 1 day, 3 days, 7 days, 14 days, 28 days, 56 days, and 112 days after the beginning of experiment; Score rules: see Zea Longer score and NSS score, full score of 10; • (i) Lifting an animal by tail: (full score of 1) […]

[2] = Body weight of rats in the 1.5-hour ischemia/reperfusion model; type: in vivo, Sprague-Dawley (SD) rats; settings: 3.6 mg/kg intraperitoneal once a day
Protocol: as §1
as §2, with “opening. The bulldog clamp was removed, and the nylon suture was gently advanced to the origin of the anterior cerebral artery (18-20 mm), thereby causing arterial ischemia in brain by blocking the blood supply of the cerebral artery. The skin was sutured and was sterilized with tincture of iodine.” for “opening.”

For `CC(C)CC(NC(=O)C(CCC(N)=O)NC(=O)C(NC(=O)C(CO)NC(=O)C(Cc1c[nH]cn1)NC(=O)C(N)C(C)C)C(C)C)C(=O)NC(Cc1ccc(O)cc1)C(=O)O` (stereo not shown) [compound of formula (III)] (H-VHSVQLY-OH; configuration not given here), the “neuroethology (neurologic deficit) score compared to the model group” value ([1]; I1.5R+1 week+dosing for 4 weeks, statistically significant in weeks 2, 3, 4, 5 and 7 after the operation, FIG. 4) was “gradually declined neuroethology score”, the “neurological score compared to the model group” value ([1]; I1.5R+2 weeks+dosing for 4 weeks, statistically significant at the fifth week after the operation, FIG. 6) was “declined from the beginning of the administration” and the “weight change compared to the model group” value ([2]; I1.5R+1 week+dosing for 4 weeks, FIG. 3) was “gradually increased weight”. The “weight change compared to the model group” value ([2]; I1.5R+2 weeks+dosing for 4 weeks, weight data not demonstrative (groups already differed before dosing), FIG. 5) was “gradually increased weight”.

Source: patent publication US20190040101A1, “COMPOUND FOR TREATING SEQUELAE OF ISCHEMIC CEREBRAL STROKE” (priority 2015, published 2019)
